{
  "source": "patent US11459356B2",
  "about": "“Neuronal nicotinic acetylcholine receptor-targeting polypeptide and use thereof” (priority 2021, dated 2022)",
  "tested_on": "human nAChR",
  "test": "Calcium response of nAChR-overexpressing CN21 cells pre-incubated with polypeptide",
  "format": "cell-based",
  "details": "CN21 cells expressing human nAChR; polypeptide 10^-11-10^-5 M; 6 hours incubation; FIG. 5",
  "description": "The bioactivity of polypeptide nAChR_BP was assessed by using […] expressing human nAChR. The CN21 cells were incubated in 12-well plates one day prior. After 25 hours of incubation, the media were removed and new media containing various concentrations (10^−11-10^−5 M) of the polypeptide were added to incubate the cells. Six hours later, concentrations of calcium ion were measured using a kit, such that the activity of nAChR_BP was determined in vitro by assessing the antagonism of the nAChR mediated increase of [Ca2+] in CN21 cells.",
  "note": "Positions of bridges follow the written chain, without caps; N, C: chain ends. No end group written: not given here.",
  "data": [
    {"substance": "nAChR_BP: novel polypeptide with amino acid sequence of SEQ ID NO: 1 that targets neuronal nicotinic acetylcholine receptor (ACCLFNCHSWVGC; disulfide 2-13, 3-7)", "values": [
      {"measurement": "antagonism of the nAChR mediated increase of [Ca2+] in CN21 cells", "value": "capable of significantly inhibiting nAChRs"}
    ]}
  ]
}
